According to patent US20110105472A1, “Diaminopyrimidines as crop protection agents” (Bayer CropScience AG, priority 2008, published 2011):

experiment: logP by LC-MS, method [b], acidic range pH 2.7; type: physicochemical; details: method [b], LC-MS, acidic range pH 2.7

SMILES | log p
CCS(=O)(=O)c1nc2ccc(Nc3ncc(Br)c(NC4CCC4)n3)cc2s1 [Compound 3] | 2.91[b]

same assay, conditions: pH 2.7

SMILES | log p
O=C(c1ccc(Nc2ncc(Cl)c(NC3CCC3)n2)cc1)N1CCCCC1 [Compound 203] | 2.27[b]
Cc1cc(C)c(C)c(Nc2ncc(Br)c(NC3CCC3)n2)c1 [Compound 61] | 2.57[b]
Fc1cc(C(F)(F)F)ccc1Nc1ncc(Br)c(NC2CCC2)n1 [Compound 63] | 3.9[b]
CC(C)(CCl)C(=O)Nc1ccc(Nc2ncc(Br)c(NC3CCC3)n2)cc1 [Compound 165] | 2.16[b]
CN(C)S(=O)(=O)Oc1cccc(Nc2ncc(Br)c(NC3CCC3)n2)c1 [Compound 89] | 2.7[b]
COc1cc(Nc2ncc(Br)c(NC3CCC3)n2)ccc1NS(C)(=O)=O [Compound 84] | 1.75[b]
Cc1nc2cc(Nc3ncc(Br)c(NC4CCC4)n3)ccc2s1 [Compound 10] | 2.11[b]
CCOc1ccc(Nc2ncc(Br)c(NC3CCC3)n2)cc1 [Compound 35] | 2.17[b]
FC(F)(F)Oc1cccc(Nc2ncc(Br)c(NC3CCC3)n2)c1 [compound 182] | 4.15[b]
CCc1cc(Nc2ncc(Cl)c(NC3CCC3)n2)ccc1C [Compound 222] | 2.73[b]
N#Cc1cnc(Nc2ccccc2)nc1NC1CCC1 [compound 29] | 2.92[b]
CN1C(=O)COc2ccc(Nc3ncc(Br)c(NC4CCC4)n3)cc21 [compound 14] | 1.85[b]
O=C1OCCN1c1ccc(Nc2ncc(Cl)c(NC3CCC3)n2)cc1 [compound 132] | 1.59[b]
CCOC(=O)Nc1cccc(Nc2ncc(Cl)c(NC3CCC3)n2)c1 [Compound 137] | 1.94[b]
CC(=O)Nc1ccc(Nc2ncc(Br)c(NC3CCC3)n2)cc1Cl [Compound 186] | 1.97[b]
CC(=O)N(C)c1ccc(Nc2ncc(Br)c(NC3CCC3)n2)cc1 [Compound 94] | 1.73[b]
CC(C)(C)c1cccc(Nc2ncc(C(F)(F)F)c(NC3CCC3)n2)c1 [Compound 259] | 4.98[b]
CS(=O)(=O)c1cccc(Nc2ncc(Br)c(NC3CCC3)n2)c1 [Compound 265] | 2.07[b]
O=C1CCCN1c1ccc(Nc2ncc(Br)c(NC3CCC3)n2)cc1 [Compound 174] | 1.72[b]
N#CCc1cccc(Nc2ncc(Br)c(NC3CCC3)n2)c1 [Compound 220] | 2.12[b]
CCSc1cccc(Nc2ncc(Br)c(NC3CCC3)n2)c1 [Compound 228] | 3.37[b]
FC(F)(F)Oc1ccc(Nc2ncc(Br)c(NC3CCC3)n2)cc1Cl [Compound 81] | 4.72[b]

SMILES | log p
CC(=O)c1cc(Nc2ncc(Br)c(NC3CCC3)n2)ccc1O [Compound 177] | 2.09[b]
O=S1(=O)Cc2ccc(Nc3ncc(Br)c(NC4CCC4)n3)cc2C1 [compound 20] | 1.78[b]
C=CCNC(=O)c1ccc(Nc2ncc(C(F)(F)F)c(NC3CCC3)n2)cc1 [Compound 239] | 2.79[b]
CC1(Nc2nc(Nc3ccccc3)ncc2C(F)(F)F)CCC1 [compound 232] | 3.36[b]
Fc1cc(F)cc(Nc2ncc(Br)c(NC3CCC3)n2)c1 [compound 144] | 3.98[b]
CN(C)S(=O)(=O)c1ccc(Nc2ncc(Cl)c(NC3CCC3)n2)cc1 [compound 114] | 2.53[b]
O=c1oc2ccc(Nc3ncc(Br)c(NC4CCC4)n3)cc2s1 [compound 11] | 2.63[b]
COC(=O)c1ccc(Nc2ncc(Br)c(NC3CCC3)n2)cc1Cl [Compound 78] | 3.59[b]
CC(=O)c1cccc(Nc2ncc(C(F)(F)F)c(NC3CCC3)n2)c1 [Compound 227] | 3.24[b]
O=c1[nH]c2ccc(Nc3ncc(Cl)c(NC4CCC4)n3)cc2o1 [compound 8] | 1.55[b]
Cc1ccc(NS(=O)(=O)c2cc(Nc3ncc(Br)c(NC4CCC4)n3)ccc2C)cc1 [Compound 66] | 3.07[b]
N#CCc1cccc(Nc2ncc(Cl)c(NC3CCC3)n2)c1 [Compound 242] | 1.97[b]
FC(F)Oc1ccc(Nc2ncc(Br)c(NC3CCC3)n2)cc1 [Compound 75] | 2.5[b]
O=C(NC1CC1)c1cccc(Nc2ncc(Br)c(NC3CCC3)n2)c1 [Compound 180] | 1.78[b]
COCC(C)Oc1ccc(Nc2ncc(Br)c(NC3CCC3)n2)cc1 (centres unmarked) [Compound 41] | 2.11[b]
N#Cc1cccc(Nc2ncc(Cl)c(NC3CCC3)n2)c1 [compound 107] | 2.46[b]
CC(=O)Nc1ccc(Nc2ncc(Cl)c(NC3CCC3)n2)cc1 [Compound 117] | 1.43[b]
CC(=O)N1CCc2cc(Nc3ncc(Br)c(NC4CCC4)n3)ccc21 [Compound 17] | 1.68[b]
O=C(c1ccc(Nc2ncc(C(F)(F)F)c(NC3CCC3)n2)cc1)N1CCCCC1 [Compound 223] | 3.31[b]
COCc1cccc(Nc2ncc(Cl)c(NC3CCC3)n2)c1 [Compound 42] | 2.05[b]
O=C(Nc1cccc(Nc2ncc(Br)c(NC3CCC3)n2)c1)Oc1ccccc1 [compound 199] | 2.51[b]
O=C1CCCN1c1ccc(Nc2ncc(Cl)c(NC3CCC3)n2)cc1 [compound 133] | 1.66[b]

SMILES | log p
CNS(=O)(=O)Cc1ccc(Nc2ncc(Br)c(NC3CCC3)n2)cc1 [Compound 86] | 1.71[b]
O=C1OCCN1c1ccc(Nc2ncc(Br)c(NC3CCC3)n2)cc1 [Compound 173] | 1.62[b]
CC(C)(C)C(=O)Nc1cccc(Nc2ncc(Br)c(NC3CCC3)n2)c1 [Compound 99] | 2.11[b]
C=CC(=O)Nc1cccc(Nc2ncc(Br)c(NC3CCC3)n2)c1 [Compound 82] | 1.71[b]
CCN(C(C)=O)c1ccc(Nc2ncc(Cl)c(NC3CCC3)n2)cc1 [Compound 119] | 1.83[b]
O=CNc1ccc(Nc2ncc(Br)c(NC3CCC3)n2)cc1 [Compound 152] | 1.47[b]
CC(C)(C)OC(=O)Nc1ccc(Nc2ncc(Br)c(NC3CCC3)n2)cc1 [Compound 162] | 2.36[b]
Oc1ccc(Nc2ncc(Br)c(NC3CCC3)n2)cc1 [compound 37] | 1.27[b]
Oc1ccc(Nc2ncc(Br)c(NC3CCC3)n2)c(F)c1 [Compound 80] | 1.55[b]
OC(c1cccc(Nc2ncc(Br)c(NC3CCC3)n2)c1)C(F)(F)F (centres unmarked) [Compound 214] | 2.17[b]
CCOC(=O)Nc1ccc(Nc2ncc(Cl)c(NC3CCC3)n2)cc1 [compound 136] | 1.8[b]
CNC(=O)Oc1cccc(Nc2ncc(Br)c(NC3CCC3)n2)c1 [Compound 196] | 1.75[b]
CN(C)S(=O)(=O)c1cccc(Nc2ncc(Br)c(NC3CCC3)n2)c1 [Compound 157] | 2.53[b]
CNc1cccc(Nc2ncc(Cl)c(NC3CCC3)n2)c1 [Compound 260] | 1.49[b]
CC(C)c1cccc(Nc2ncc(C(F)(F)F)c(NC3CCC3)n2)c1 [Compound 225] | 4.61[b]
CC(C)(CF)C(=O)Nc1ccc(Nc2ncc(Br)c(NC3CCC3)n2)cc1 [Compound 171] | 1.99[b]
COc1cc(Nc2ncc(Cl)c(NC3CCC3)n2)ccc1NC(C)=O [Compound 108] | 1.55[b]
CN(C=O)c1ccc(Nc2ncc(Br)c(NC3CCC3)n2)cc1 [Compound 153] | 1.68[b]
FC1(F)Oc2ccc(Nc3ncc(Br)c(NC4CCC4)n3)cc2OC1(F)F [Compound 18] | 4.56[b]
CS(=O)(=O)c1ccc(Nc2ncc(Cl)c(NC3CCC3)n2)cc1 [compound 113] | 2.09[b]
CC(C)(C)c1cccc(Nc2ncc(Cl)c(NC3CCC3)n2)c1 [compound 255] | 3.26[b]
CC(=O)CCc1cccc(Nc2ncc(Cl)c(NC3CCC3)n2)c1 [Compound 256] | 1.98[b]

SMILES | log p
O=C(Nc1cccc(Nc2ncc(Br)c(NC3CCC3)n2)c1)c1ccco1 [Compound 167] | 1.94[b]
Clc1cnc(Nc2ccc(NC3CC3)cc2)nc1NC1CCC1 [compound 207] | 0.71[b]
CS(=O)(=O)Nc1ccc(Nc2ncc(Br)c(NC3CCC3)n2)cc1 [Compound 85] | 1.61[b]
CC1(C(=O)Nc2ccc(Nc3ncc(Cl)c(NC4CCC4)n3)cc2)CC1 [compound 122] | 1.87[b]
CNC(=O)c1ccc(Nc2ncc(Cl)c(NC3CCC3)n2)cc1 [Compound 126] | 1.5[b]
CC(C)c1cccc(Nc2ncc(Cl)c(NC3CCC3)n2)c1 [Compound 243] | 3.1[b]
CCC(=O)c1cc(Nc2ncc(Br)c(NC3CCC3)n2)ccc1O [compound 194] | 2.39[b]
CCN(C)C(=O)c1ccc(Nc2ncc(Cl)c(NC3CCC3)n2)cc1 [Compound 246] | 1.85[b]
CC(C)(C)C(=O)Nc1ccc(Nc2ncc(Br)c(NC3CCC3)n2)cc1 [Compound 92] | 2.02[b]
Oc1cccc(Nc2ncc(Br)c(NC3CCC3)n2)c1 [Compound 178] | 1.5[b]
CCN(CC)C(=O)c1cccc(Nc2ncc(Br)c(NC3CCC3)n2)c1 [Compound 252] | 2.26[b]
CNC(=O)Oc1cccc(Nc2ncc(Cl)c(NC3CCC3)n2)c1 [Compound 138] | 1.64[b]
C=C(C)C(=O)Nc1cccc(Nc2ncc(Cl)c(NC3CCC3)n2)c1 [compound 124] | 1.8[b]
N#Cc1ccc(Nc2ncc(Cl)c(NC3CCC3)n2)cc1 [Compound 111] | 2.77[b]
CC(C)(CF)C(=O)Nc1cccc(Nc2ncc(Cl)c(NC3CCC3)n2)c1 [Compound 141] | 1.97[b]
CS(=O)(=O)c1cccc(Nc2ncc(C(F)(F)F)c(NC3CCC3)n2)c1 [Compound 264] | 2.76[b]
Cc1ccccc1Nc1ncc(Br)c(NC2CCC2)n1 [Compound 60] | 1.87[b]
CN1CC(=O)N(c2ccc(Nc3ncc(Br)c(NC4CCC4)n3)cc2)C1=O [Compound 164] | 1.63[b]
Brc1ccc(Nc2ncc(Br)c(NC3CCC3)n2)cc1 [compound 67] | 3.18[b]
Brc1cnc(Nc2ccc(-c3cscn3)cc2)nc1NC1CCC1 [Compound 74] | 2.26[b]
O=C(Nc1ccc(Nc2ncc(Br)c(NC3CCC3)n2)cc1)C(F)(F)F [Compound 95] | 2.21[b]
CC(C)c1cccc(Nc2ncc(Br)c(NC3CCC3)n2)c1 [Compound 205] | 3.21[b]
